Details in all cases: Homo sapiens
Test [1] has as its system MT4. Put plainly: Concentration required to protect MT-4 cells against the cytopathogenicity of HIV-2 (ROD). In kind it is functional, cell-based. (Protection from cytopathic effect is a common read-out in antiviral testing.)
For test [2], the system named is MT4. Put plainly: Concentration required to protect MT-4 cells against the cytopathogenicity of HIV-1 (IIIB/LAI). In kind it is functional, cell-based.
Test [3] relates to MT4. Put plainly: Cytotoxic concentration required to reduce the viability of MT-4 cells by 50%. In kind it is functional.

SMILES strings stand for the structures. pEC50: −log10 of the molar value.

In the case of `CN(C)CCN1CCCCC1C12CC3CC(CC(C3)C1)C2` (configuration not stated), the pEC50 (commonly the negative decadic logarithm of the EC50, by convention in mol/L) is less than 3.56 in test [1] and 4.39 in test [2]. In addition, the CC50 (as a rule, the concentration that lowers cell viability or growth by half) in test [3] worked out at 274 µM.

With `C1CCC(C23CC4CC(CC(C4)C2)C3)NC1` (configuration not stated), the pEC50 in test [1] and in test [2] was less than 3.39 in each case. For the same molecule, the CC50 in test [3] was determined as 403 µM.

Turning to `c1ccc(CN2CCCCC2C23CC4CC(CC(C4)C2)C3)cc1` (configuration not stated), the pEC50 in test [1] and in test [2] was less than 4.19 each time. In test [3], this molecule gave a CC50 of 62.7 µM.

As to `S=C(Nc1ccc(Cl)cc1Cl)N1CCCCC1C12CC3CC(CC(C3)C1)C2` (configuration not stated), the pEC50 in test [1] and in test [2] was less than 4.72 throughout. Besides, it took 17.7 µM to reach half-maximal cytotoxicity in test [3] (CC50).

For the molecule `C1CCN(CC2CC2)C(C23CC4CC(CC(C4)C2)C3)C1` (configuration not stated), the pEC50 in test [1] was less than 3.58; in test [2], 4.12. In addition, in test [3], the cytotoxic concentration (CC50) is 263 µM.

Consider `CCN1CCCCC1C12CC3CC(CC(C3)C1)C2` (configuration not stated), for which the pEC50 in test [1] and in test [2] was less than 3.38 throughout. In test [3], this molecule returned a CC50 of 417 µM.

`O=C(Nc1ccc(Cl)cc1)N1CCCCC1C12CC3CC(CC(C3)C1)C2` (configuration not stated): the pEC50 in test [1] and in test [2] was less than 4.89 throughout. Further, the CC50 in test [3] was found to be 12.6 µM.

Turning to `C1CCN(CCN2CCCCC2C23CC4CC(CC(C4)C2)C3)CC1` (configuration not stated), the results for the negative logarithm of the EC50 (pEC50) in test [1] and in test [2] were less than 4.27 and 5.44, respectively. The molecule further gave a CC50 in test [3] of 52.6 µM.

For the molecule `CN1CCCCC1C12CC3CC(CC(C3)C1)C2` (configuration not stated), the pEC50 in test [1] and in test [2] was less than 3.38 each time. The molecule further returned a cytotoxic concentration (CC50) in test [3] of 413 µM.
